Our source for the IC50 values is patent US20250340557A1, “PYRIMIDINE DERIVATIVE” (ASKA PHARMACEUTICAL CO., LTD., priority 2022, published 2025).

Molecules are shown by their SMILES.

The first experiment addresses T1, human mPGES-1 (Homo sapiens, UniProt O14684).
T1 construct: made in house; host or cells: COS-1 cells (transient transfection; microsomal fraction used as enzyme)
T1 sequence (O14684 1-152): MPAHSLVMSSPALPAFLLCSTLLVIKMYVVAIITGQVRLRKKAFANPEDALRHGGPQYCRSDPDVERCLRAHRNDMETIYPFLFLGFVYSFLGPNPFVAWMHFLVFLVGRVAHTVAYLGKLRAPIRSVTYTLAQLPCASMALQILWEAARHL
The experiment in a line: Test for mPGES-1 inhibitory activity (microsomal enzyme, PGE2 EIA). Format: biochemical. The settings on record: microsomes from COS-1 cells transfected with human mPGES-1 cDNA; substrate PGH2 1 μM; 4° C., 4 minutes; PGE2 measured by EIA; read-out: h mPGES1 IC50. In a few lines: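 Enzyme source was microsomes from COS-1 cells transiently expressing human mPGES-1, in sodium phosphate pH 7.2 with 2.5 mM GSH, 1 mM EDTA and 2% DMSO final. After a 15 min preincubation with compound at 4 °C, 1 μM PGH2 (final) reacted for 4 min at 4 °C.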
On to `O=C(NCc1ccc(C(F)(F)F)c(-c2nc(C(F)(F)F)cc(=O)[nH]2)c1F)C1CN(c2cccc(C(F)(F)F)n2)C1` [Example 26, N-{2-fluoro-3-[6-oxo-4-(trifluoromethyl)-1,6-dihydropyrimidin-2-yl]-4-(trifluoromethyl)benzyl}-1-[6-(trifluoromethyl)pyridin-2-yl]azetidine-3-carboxamide], for which the IC50 is 4.1 nM.
On to `O=C(NCc1ccc(C(F)(F)F)c(-c2nc(C(F)F)cc(=O)[nH]2)c1F)C1CCN(c2ncc(Cl)cc2Cl)CC1` [Example 45, 1-(3,5-dichloropyridin-2-yl)-N-{3-[4-(difluoromethyl)-6-oxo-1,6-dihydropyrimidin-2-yl]-2-fluoro-4-(trifluoromethyl)benzyl}piperidine-4-carboxamide], for which the IC50 stood at 15 nM.
Still for that read-out and setting: next, `Cc1nc(-c2c(C(F)(F)F)ccc(CNC(=O)C3CCN(c4ccc(C(F)(F)F)cn4)CC3)c2F)[nH]c(=O)c1C` [Example 35, N-[3-(4,5-dimethyl-6-oxo-1,6-dihydropyrimidin-2-yl)-2-fluoro-4-(trifluoromethyl)benzyl]-1-[5-(trifluoromethyl)pyridin-2-yl]piperidine-4-carboxamide]: 11 nM; `Cc1nc(-c2c(C(F)(F)F)ccc(CNC(=O)C3CCN(c4ccc(C(F)(F)F)cn4)CC3)c2F)[nH]c(=O)c1F` [Example 33, N-[2-fluoro-3-(5-fluoro-4-methyl-6-oxo-1,6-dihydropyrimidin-2-yl)-4-(trifluoromethyl)benzyl]-1-[5-(trifluoromethyl)pyridin-2-yl]piperidine-4-carboxamide]: 14 nM.
On to `Cc1cc(=O)[nH]c(-c2c(C(F)(F)F)ccc(CNC(=O)C3CCN(c4ccc5cccc(C)c5n4)CC3)c2F)n1` [Example 9, N-[2-fluoro-3-(4-methyl-6-oxo-1,6-dihydropyrimidin-2-yl)-4-(trifluoromethyl)benzyl]-1-(8-methylquinolin-2-yl)piperidine-4-carboxamide], for which the IC50 was less than 10 nM.
Turning to `Cc1cc(=O)[nH]c(-c2c(C(F)(F)F)ccc(CNC(=O)C3CCN(c4ccc(OC(F)(F)F)cc4)CC3)c2F)n1` [Example 87, N-[2-fluoro-3-(4-methyl-6-oxo-1,6-dihydropyrimidin-2-yl)-4-(trifluoromethyl)benzyl]-1-[4-(trifluoromethoxy)phenyl]piperidine-4-carboxamide], the IC50 stood at 39 nM.
The same measure, in the same setting: next, `O=c1cc(C(F)(F)F)nc(-c2c(C(F)(F)F)ccc(CNC(=O)[C@H]3CC[C@H](OCc4ccc(Cl)cc4)CC3)c2F)[nH]1` [Example 101, trans-4-[(4-chlorobenzyl)oxy]-N-{2-fluoro-3-[6-oxo-4-(trifluoromethyl)-1,6-dihydropyrimidin-2-yl]-4-(trifluoromethyl)benzyl}cyclohexane-1-carboxamide]: less than 1 nM.
Still for that read-out and setting: next, `Cc1cc(=O)[nH]c(-c2c(C(F)(F)F)ccc(CNC(=O)[C@H]3CC[C@H](OCc4cc(F)cc(Cl)c4)CC3)c2F)n1` [Example 122, trans-4-[(3-chloro-5-fluorobenzyl)oxy]-N-[2-fluoro-3-(4-methyl-6-oxo-1,6-dihydropyrimidin-2-yl)-4-(trifluoromethyl)benzyl]cyclohexane-1-carboxamide]: less than 1 nM; `Cc1cc(=O)[nH]c(-c2c(C(F)(F)F)ccc(CNC(=O)C3CCN(c4cccc(C(F)(F)F)c4)CC3)c2F)n1` [Example 94, N-[2-fluoro-3-(4-methyl-6-oxo-1,6-dihydropyrimidin-2-yl)-4-(trifluoromethyl)benzyl]-1-[3-(trifluoromethyl)phenyl]piperidine-4-carboxamide]: 13 nM.
As for `Cc1cc(=O)[nH]c(-c2c(C(F)(F)F)ccc(CNC(=O)[C@H]3CC[C@H](OCc4ccc(Cl)cc4)CC3)c2F)n1` [Example 105, trans-4-[(4-chlorobenzyl)oxy]-N-[2-fluoro-3-(4-methyl-6-oxo-1,6-dihydropyrimidin-2-yl)-4-(trifluoromethyl)benzyl]cyclohexane-1-carboxamide], the IC50 was found to be 23 nM.

The experiment is the same for the next values; noted with them: microsomes of COS-1 cells transfected with human mPGES-1 cDNA; PGH2 1 μM; 4° C., 4 minutes; PGE2 by EIA; read-out: h mPGES1 IC50.
Consider `O=c1cc(C(F)(F)F)nc(-c2c(C(F)(F)F)ccc(CNS(=O)(=O)c3ccccc3C(F)(F)F)c2F)[nH]1` [Example 272, N-{2-fluoro-3-[6-oxo-4-(trifluoromethyl)-1,6-dihydropyrimidin-2-yl]-4-(trifluoromethyl)benzyl}-2-(trifluoromethyl)benzenesulfonamide], for which the 50% inhibitory concentration (IC50) worked out at 33 nM.
As to `CCc1cc(=O)[nH]c(-c2c(C(F)(F)F)ccc(CNC(=O)[C@H]3C[C@H](OCc4cc(Cl)ccc4F)C3)c2F)n1` [Example 209, trans-3-[(5-chloro-2-fluorobenzyl)oxy]-N-[3-(4-ethyl-6-oxo-1,6-dihydropyrimidin-2-yl)-2-fluoro-4-(trifluoromethyl)benzyl]cyclobutane-1-carboxamide], the IC50 was determined as 8.8 nM.
For the molecule `CCc1cc(=O)[nH]c(-c2c(C(F)(F)F)ccc(CNC(=O)[C@H]3C[C@H](OCc4ccc(F)c(F)c4)C3)c2F)n1` [Example 203, trans-3-[(3,4-difluorobenzyl)oxy]-N-[3-(4-ethyl-6-oxo-1,6-dihydropyrimidin-2-yl)-2-fluoro-4-(trifluoromethyl)benzyl]cyclobutane-1-carboxamide], the IC50 was less than 1 nM.
The same measure, in the same setting: then `O=c1cc(C(F)F)nc(-c2c(C(F)(F)F)ccc(CNC(=O)[C@H]3C[C@H](OCc4ccc(C(F)(F)F)cc4)C3)c2F)[nH]1` [Example 166, trans-N-{3-[4-(difluoromethyl)-6-oxo-1,6-dihydropyrimidin-2-yl]-2-fluoro-4-(trifluoromethyl)benzyl}-3-{[4-(trifluoromethyl)benzyl]oxy}cyclobutane-1-carboxamide], with 8.8 nM; and `O=c1cc(C(F)(F)F)nc(-c2c(C(F)(F)F)ccc(CNC(=O)[C@H]3C[C@H](Oc4cccc(Cl)c4)C3)c2F)[nH]1` [Example 253, trans-3-(3-chlorophenoxy)-N-{2-fluoro-3-[6-oxo-4-(trifluoromethyl)-1,6-dihydropyrimidin-2-yl]-4-(trifluoromethyl)benzyl}cyclobutane-1-carboxamide], with 1 nM.
As for `CC(C)CO[C@H]1C[C@@H](C(=O)NCc2ccc(C(F)(F)F)c(-c3nc(C(F)(F)F)cc(=O)[nH]3)c2F)C1` [Example 257, cis-N-{2-fluoro-3-[6-oxo-4-(trifluoromethyl)-1,6-dihydropyrimidin-2-yl]-4-(trifluoromethyl)benzyl}-3-isobutoxycyclobutane-1-carboxamide], the IC50 was found to be 5.8 nM.
As to `O=c1cc(C(F)F)nc(-c2c(C(F)(F)F)ccc(CNC(=O)[C@H]3C[C@H](OCc4cccc(Cl)c4F)C3)c2F)[nH]1` [Example 174, trans-3-[(3-chloro-2-fluorobenzyl)oxy]-N-{3-[4-(difluoromethyl)-6-oxo-1,6-dihydropyrimidin-2-yl]-2-fluoro-4-(trifluoromethyl)benzyl}cyclobutane-1-carboxamide], the half-inhibitory concentration (IC50) is less than 1 nM.
Regarding `O=c1cc(C(F)(F)F)nc(-c2c(C(F)(F)F)ccc(CNC(=O)[C@H]3C[C@@H](Oc4cccc(Cl)c4)C3)c2F)[nH]1` [Example 254, cis-3-(3-chlorophenoxy)-N-{2-fluoro-3-[6-oxo-4-(trifluoromethyl)-1,6-dihydropyrimidin-2-yl]-4-(trifluoromethyl)benzyl}cyclobutane-1-carboxamide], the IC50 was 4.6 nM.
On the same count and under the same terms, next, `O=C(NCc1ccc(C(F)(F)F)c(-c2nc(-c3ccc(C(F)(F)F)cn3)cc(=O)[nH]2)c1F)C1CC(OCc2ccccc2)C1` (centres unmarked) [Example 266, 3-(benzyloxy)-N-(2-fluoro-3-{6-oxo-4-[5-(trifluoromethyl)pyridin-2-yl]-1,6-dihydropyrimidin-2-yl}-4-(trifluoromethyl)benzyl)cyclobutane-1-carboxamide]: less than 1 nM; `O=c1cc(C(F)(F)F)nc(-c2c(C(F)(F)F)ccc(CNC(=O)[C@H]3C[C@H](Oc4ccccc4Cl)C3)c2F)[nH]1` [Example 251, trans-3-(2-chlorophenoxy)-N-{2-fluoro-3-[6-oxo-4-(trifluoromethyl)-1,6-dihydropyrimidin-2-yl]-4-(trifluoromethyl)benzyl}cyclobutane-1-carboxamide]: less than 1 nM; `Cc1nc(-c2c(C(F)(F)F)ccc(CNC(=O)[C@H]3C[C@H](OCc4cc(F)cc(Cl)c4)C3)c2F)[nH]c(=O)c1F` [Example 228, trans-3-[(3-chloro-5-fluorobenzyl)oxy]-N-[2-fluoro-3-(5-fluoro-4-methyl-6-oxo-1,6-dihydropyrimidin-2-yl)-4-(trifluoromethyl)benzyl]cyclobutane-1-carboxamide]: less than 1 nM.
As for `Cc1cc(=O)[nH]c(-c2c(C(F)(F)F)ccc(CNC(=O)[C@H]3C[C@H](OCc4cc(F)cc(F)c4)C3)c2F)n1` [Example 187, trans-3-[(3,5-difluorobenzyl)oxy]-N-[2-fluoro-3-(4-methyl-6-oxo-1,6-dihydropyrimidin-2-yl)-4-(trifluoromethyl)benzyl]cyclobutane-1-carboxamide], the IC50 was found to be 6.4 nM.
Still for that read-out and setting: next, `CCc1nc(-c2c(C(F)(F)F)ccc(CNC(=O)[C@H]3C[C@H](OCc4ccc(C(F)(F)F)cc4)C3)c2F)[nH]c(=O)c1F` [Example 234, trans-N-[3-(4-ethyl-5-fluoro-6-oxo-1,6-dihydropyrimidin-2-yl)-2-fluoro-4-(trifluoromethyl)benzyl]-3-{[4-(trifluoromethyl)benzyl]oxy}cyclobutane-1-carboxamide]: less than 1 nM.

What is called IC50 is the concentration at which inhibition is half-maximal.
